Measured values: patent publication US20260257998A1, “ERR MODULATORS” (University of Health Sciences and Pharmacy in St. Louis, priority 2023, published 2026)

Experiments:
ERRα = target: T1, ERRα (Homo sapiens, UniProt P11474); assay: ERRE luciferase reporter assay in HEK293 cells transfected with pcDNA3.1 ERRα; assay type: cell-based; design: key to EC50 (ERRα): ***<1 μM; **1-5 μM; *>5 μM; i.a. (inactive); conditions: 24 hours treatment, luciferase activity
T1 construct: expressed in transfected cells; host or cells: HEK293
T1 sequence (P11474 1-423): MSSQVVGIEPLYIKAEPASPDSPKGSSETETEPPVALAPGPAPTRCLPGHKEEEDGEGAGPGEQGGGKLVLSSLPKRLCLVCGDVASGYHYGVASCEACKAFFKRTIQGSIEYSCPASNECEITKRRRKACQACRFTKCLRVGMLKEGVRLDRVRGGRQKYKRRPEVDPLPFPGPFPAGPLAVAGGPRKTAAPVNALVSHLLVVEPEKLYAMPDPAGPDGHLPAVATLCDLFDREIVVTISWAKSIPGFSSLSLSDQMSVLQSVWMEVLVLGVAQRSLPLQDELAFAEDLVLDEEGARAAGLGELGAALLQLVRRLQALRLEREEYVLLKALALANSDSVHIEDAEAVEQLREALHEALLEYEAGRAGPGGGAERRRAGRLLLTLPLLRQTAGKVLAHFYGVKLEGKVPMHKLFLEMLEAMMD
Description: (§1) HEK293 cells were maintained in Dulbecco's modified Eagles medium (DMEM) supplemented with 10% fetal bovine serum at 37° C. under 5% CO2. […] Cells were transfected with ERRE reporter construct and pcDNA3.1 ERRα or ERRγ. Twenty-four-hours post-transfection, the cells were treated with vehicle or compound (various concentrations) for 24 hours (4 wells per dose). Luciferase activity was measured using the One-Glo Tox luciferase reporter assay system (Promega) and […] were calculated using GraphPad Prism software.

ERRγ = target: T2, ERRγ (Homo sapiens, UniProt P62508); assay: ERRE luciferase reporter assay in HEK293 cells transfected with pcDNA3.1 ERRγ; assay type: cell-based; design: key to EC50 (ERRγ): ***<1 μM; **1-5 μM; *>5 μM; i.a. (inactive); conditions: 24 hours treatment, luciferase activity
T2 construct: expressed in transfected cells; host or cells: HEK293
T2 sequence (P62508 1-458): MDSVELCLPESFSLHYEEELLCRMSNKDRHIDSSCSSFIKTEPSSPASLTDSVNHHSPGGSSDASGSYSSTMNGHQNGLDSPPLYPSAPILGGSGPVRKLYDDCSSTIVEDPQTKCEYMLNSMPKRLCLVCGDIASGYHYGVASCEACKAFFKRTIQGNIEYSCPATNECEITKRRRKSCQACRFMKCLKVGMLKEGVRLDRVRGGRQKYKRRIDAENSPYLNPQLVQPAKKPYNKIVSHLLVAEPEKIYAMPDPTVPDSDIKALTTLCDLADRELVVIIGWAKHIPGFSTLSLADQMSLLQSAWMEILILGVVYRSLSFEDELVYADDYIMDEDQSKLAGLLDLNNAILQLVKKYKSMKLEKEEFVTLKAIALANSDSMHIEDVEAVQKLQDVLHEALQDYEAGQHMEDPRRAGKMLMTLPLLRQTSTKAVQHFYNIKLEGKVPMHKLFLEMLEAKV
Description: as §1

SMILES	EC50 (ERRα)	EC50 (ERRγ)	EC50 (ERRα) (ERRα)	EC50 (ERRγ) (ERRγ)
Oc1cccc(C2=NNC(c3ccc4ccccc4c3)C2)c1 (stereo not drawn) [Entry 99, 3-(5-(naphthalen-2-yl)-4,5-dihydro-1H-pyrazol-3-yl)phenol]	1000 to 5000 nM	1000 to 5000 nM		
Oc1ccccc1C1=NNC(c2ccc(Br)cc2)C1 (stereo not drawn) [Entry 95, 2-(5-(4-bromophenyl)-4,5-dihydro-1H-pyrazol-3-yl)phenol]	< 1000 nM	1000 to 5000 nM		
Cc1ccc(C2CC(c3ccccc3)=NN2)c(O)c1 (stereo not drawn) [Entry 38, 5-Methyl-2-(3-phenyl-4,5-dihydro-1H-pyrazol-5-yl)phenol]	1000 to 5000 nM	1000 to 5000 nM		
CC(=O)N1N=C(c2ccc(Br)cc2)CC1c1ccccc1O (stereo not drawn) [Entry 12, 1-(3-(4-Bromophenyl)-5-(2-hydroxyphenyl)-4,5-dihydro-1H-pyrazol-1-yl)ethan-1-one]			i.a.	i.a.
Oc1ccc(C2CC(c3ccc(Br)cc3)=NN2)cc1 (stereo not drawn) [Entry 80, 4-(3-(4-bromophenyl)-4,5-dihydro-1H-pyrazol-5-yl)phenol]	< 1000 nM	1000 to 5000 nM		
Oc1c(Br)cc(Br)cc1C1CC(c2ccc3ccccc3c2)=NN1 (stereo not drawn) [Entry 116, 2,4-dibromo-6-(3-(naphthalen-2-yl)-4,5-dihydro-1H-pyrazol-5-yl)phenol]			i.a.	i.a.
Oc1ccccc1C1CC(c2ccc(F)cc2)=NN1 (stereo not drawn) [Entry 46, 2-(3-(4-Fluorophenyl)-4,5-dihydro-1H-pyrazol-5-yl)phenol]	1000 to 5000 nM	> 5000 nM		
Oc1c(Br)cc(Br)cc1C1CC(c2cc(Br)cc(Br)c2)=NN1 (stereo not drawn) [Entry 43, 2,4-Dibromo-6-(3-(3,5-dibromophenyl)-4,5-dihydro-1H-pyrazol-5-yl)phenol]			i.a.	i.a.
Oc1ccc(C2CC(c3ccc(F)cc3)=NN2)cc1 (stereo not drawn) [Entry 85, 4-(3-(4-fluorophenyl)-4,5-dihydro-1H-pyrazol-5-yl)phenol]	> 5000 nM	> 5000 nM		
Oc1ccccc1C1=NNC(c2ccc(Cl)cc2)C1 (stereo not drawn) [Entry 66, 2-(5-(4-chlorophenyl)-4,5-dihydro-1H-pyrazol-3-yl)phenol]	< 1000 nM	< 1000 nM		
Oc1ccccc1C1CC(c2ccccc2F)=NN1 (stereo not drawn) [Entry 54, 2-(3-(2-Fluorophenyl)-4,5-dihydro-1H-pyrazol-5-yl)phenol]	1000 to 5000 nM	> 5000 nM		
Oc1ccccc1C1CC(c2ccc(Cl)cc2Cl)=NN1 (stereo not drawn) [Entry 48, 2-(3-(2,4-Dichlorophenyl)-4,5-dihydro-1H-pyrazol-5-yl)phenol]			i.a.	i.a.
Brc1cccc(C2=NNC(c3ccc4ccccc4c3)C2)c1 (stereo not drawn) [Entry 86, 3-(3-bromophenyl)-5-(naphthalen-2-yl)-4,5-dihydro-1H-pyrazole]	> 5000 nM	> 5000 nM		
CC(=O)N1N=C(c2ccccc2O)CC1c1ccccc1O (stereo not drawn) [Entry 15, 1-(3,5-bis(2-hydroxyphenyl)-4,5-dihydro-1H-pyrazol-1-yl)ethan-1-one]			i.a.	i.a.
Oc1ccccc1C1CC(c2ccccc2C(F)(F)F)=NN1 (stereo not drawn) [Entry 103, 2-(3-(2-(trifluoromethyl)phenyl)-4,5-dihydro-1H-pyrazol-5-yl)phenol]			i.a.	i.a.
Nc1ccccc1C1CC(c2ccccc2)=NN1 (stereo not drawn) [Entry 37, 2-(3-Phenyl-4,5-dihydro-1H-pyrazol-5-yl)aniline]	< 1000 nM	< 1000 nM		
Cc1cc(C2CC(c3ccc(C(F)(F)F)cc3)=NN2)cc(C)c1O (stereo not drawn) [Entry 70, 2,6-dimethyl-4-(3-(4-(trifluoromethyl)phenyl)-4,5-dihydro-1H-pyrazol-5-yl)phenol]			i.a.	i.a.

SMILES	EC50 (ERRα)	EC50 (ERRγ)	EC50 (ERRα) (ERRα)	EC50 (ERRγ) (ERRγ)
Cc1ccc(C2=NNC(c3ccccc3O)C2)cc1 (stereo not drawn) [Entry 28, 2-(3-(p-tolyl)-4,5-dihydro-1H-pyrazol-5-yl)phenol]			i.a.	i.a.
Oc1ccccc1C1CC(c2ccc(OC(F)(F)F)cc2)=NN1 (stereo not drawn) [Entry 41, 2-(3-(4-(Trifluoromethoxy)phenyl)-4,5-dihydro-1H-pyrazol-5-yl)phenol]	< 1000 nM	< 1000 nM		
Oc1cccc(C2=NNC(c3cnc[nH]3)C2)c1 (stereo not drawn) [Entry 102, 3-(5-(1H-imidazol-5-yl)-4,5-dihydro-1H-pyrazol-3-yl)phenol]	> 5000 nM	> 5000 nM		
Oc1cccc(C2CC(c3ccc(Cl)cc3)=NN2)c1 (stereo not drawn) [Entry 10, 3-(3-(4-Chlorophenyl)-4,5-dihydro-1H-pyrazol-5-yl)phenol]	1000 to 5000 nM	< 1000 nM		
CC(C)c1ccc(O)c(C2CC(c3ccc(F)cc3)=NN2)c1 (stereo not drawn) [Entry 63, 2-(3-(4-fluorophenyl)-4,5-dihydro-1H-pyrazol-5-yl)-4-isopropylphenol]			i.a.	i.a.
FC(F)(F)c1ccc(C2=NNC(c3ccccc3)C2)cc1 (stereo not drawn) [Entry 75, 5-phenyl-3-(4-(trifluoromethyl)phenyl)-4,5-dihydro-1H-pyrazole]	1000 to 5000 nM	1000 to 5000 nM		
CCc1ccccc1C1CC(c2ccccc2O)=NN1 (stereo not drawn) [Entry 22, 2-(5-(2-Ethylphenyl)-4,5-dihydro-1H-pyrazol-3-yl)phenol]			i.a.	i.a.
Oc1c(Br)cccc1C1CC(c2ccc(Br)cc2)=NN1 (stereo not drawn) [Entry 35, 2-Bromo-6-(3-(4-bromophenyl)-4,5-dihydro-1H-pyrazol-5-yl)phenol]	1000 to 5000 nM	1000 to 5000 nM		
Oc1cccc(C2CC(c3cccc(F)c3)=NN2)c1 (stereo not drawn) [Entry 78, 3-(3-(3-fluorophenyl)-4,5-dihydro-1H-pyrazol-5-yl)phenol]	1000 to 5000 nM			i.a.
Oc1ccc(C2CC(c3ccc(C(F)(F)F)cc3)=NN2)cc1Cl (stereo not drawn) [Entry 71, 2-chloro-4-(3-(4-(trifluoromethyl)phenyl)-4,5-dihydro-1H-pyrazol-5-yl)phenol]			i.a.	i.a.
Oc1ccccc1C1=NNC(c2ccc(Br)cc2O)C1 (stereo not drawn) [Entry 120, 5-bromo-2-(3-(2-hydroxyphenyl)-4,5-dihydro-1H-pyrazol-5-yl)phenol]	> 5000 nM	> 5000 nM		
Oc1ccccc1C1CC(c2ccccc2)=NN1 (stereo not drawn) [Entry 34, 2-(3-Phenyl-4,5-dihydro-1H-pyrazol-5-yl)phenol]	> 5000 nM	1000 to 5000 nM		
Oc1ccc(C2CC(c3cc(C(F)(F)F)cc(C(F)(F)F)c3)=NN2)cc1 (stereo not drawn) [Entry 9, 4-(3-(3,5-bis(trifluoromethyl)phenyl)-4,5-dihydro-1H-pyrazol-5-yl)phenol]			i.a.	i.a.
Oc1ccccc1C1CC(c2ccc(Cl)cc2)=NN1 (stereo not drawn) [Entry 47, 2-(3-(4-Chlorophenyl)-4,5-dihydro-1H-pyrazol-5-yl)phenol]	> 5000 nM	1000 to 5000 nM		
COc1cccc(C2CC(c3ccc(Br)cc3)=NN2)c1O (stereo not drawn) [Entry 36, 2-(3-(4-Bromophenyl)-4,5-dihydro-1H-pyrazol-5-yl)-6-methoxyphenol]	< 1000 nM	< 1000 nM		
Oc1ccccc1C1=NNC(c2ccc3ccccc3c2)C1 (stereo not drawn) [Entry 21, 2-(5-(Naphthalen-2-yl)-4,5-dihydro-1H-pyrazol-3-yl)phenol]		< 1000 nM	i.a.	
